# According to patent publication US20250170136A1, “1,2,4-TRIAZIN-3(2H)-ONE COMPOUNDS FOR THE TREATMENT OF HYPERPROLIFERATIVE DISEASES” (BAYER AKTIENGESELLSCHAFT, priority 2019, published 2025):
# pIC50: −log10 of the molar value.
# Key:
# [1] = tested on: HeLa cells; assay: Cell proliferation measurement (CellTiter-Glo, 72 h); format: cell-based; conditions: Homo sapiens, anti-proliferation
# Method: (§1) The antiproliferative activity of the compounds of the general formula (I) was examined in vitro in human cancer cells. […] After 24 h, cells on one plate (0 h plate) were treated with 30 μl/cavity of CTG solution (Promega Cell Titer Glo (catalogue #G755B and G756B)) and incubated at room temperature for 10 min, and luminescence was measured by means of a VICTOR V (Perkin Elmer), in order to determine cell viability on commencement of treatment. The cells on the test plate were treated with the compounds of the general formula (I) as and incubated at 37° C. for 72 h. The compounds were added to the cells by means of an HP D300 digital dispenser in a 10-step 2,5-fold dilution series generally starting at a maximum final drug concentration of 100 nM, or 30 μM in the case of COV318. As control, the cells were treated with vehicle (DMSO at 0.3% final concentration). After 72 h, the cells were treated with 30 μl/cavity of CTG solution (Promega Cell Titer Glo (catalogue #G755B and G756B)) and incubated at room temperature for 10 min, and luminescence was measured by means of a VICTOR V (Perkin Elmer), in order to determine cell viability at the end of treatment. The percentage effect on cell growth and the IC50 derived therefrom were determined for each test substance using the values from the 0 h plate (=maximum inhibition) and the DMSO control (=minimum inhibition). The IC50 values were calculated using a 4-parameter fit.
# [2] = tested on: SK-MEL-3 cells; assay: as above; format: cell-based; conditions: Homo sapiens, SK-MEL3; anti-proliferation, SK-MEL-3, 72 h
# Method: as §1
# [3] = molecular target: human full length PDE3A (Homo sapiens (Human), UniProt Q14432); assay: PDE3A enzyme inhibition (3H-cAMP Scintillation Proximity Assay); format: biochemical; conditions: Sf9 cell extract, 60 min room temperature
# Chain of human full length PDE3A (Q14432 whole entry): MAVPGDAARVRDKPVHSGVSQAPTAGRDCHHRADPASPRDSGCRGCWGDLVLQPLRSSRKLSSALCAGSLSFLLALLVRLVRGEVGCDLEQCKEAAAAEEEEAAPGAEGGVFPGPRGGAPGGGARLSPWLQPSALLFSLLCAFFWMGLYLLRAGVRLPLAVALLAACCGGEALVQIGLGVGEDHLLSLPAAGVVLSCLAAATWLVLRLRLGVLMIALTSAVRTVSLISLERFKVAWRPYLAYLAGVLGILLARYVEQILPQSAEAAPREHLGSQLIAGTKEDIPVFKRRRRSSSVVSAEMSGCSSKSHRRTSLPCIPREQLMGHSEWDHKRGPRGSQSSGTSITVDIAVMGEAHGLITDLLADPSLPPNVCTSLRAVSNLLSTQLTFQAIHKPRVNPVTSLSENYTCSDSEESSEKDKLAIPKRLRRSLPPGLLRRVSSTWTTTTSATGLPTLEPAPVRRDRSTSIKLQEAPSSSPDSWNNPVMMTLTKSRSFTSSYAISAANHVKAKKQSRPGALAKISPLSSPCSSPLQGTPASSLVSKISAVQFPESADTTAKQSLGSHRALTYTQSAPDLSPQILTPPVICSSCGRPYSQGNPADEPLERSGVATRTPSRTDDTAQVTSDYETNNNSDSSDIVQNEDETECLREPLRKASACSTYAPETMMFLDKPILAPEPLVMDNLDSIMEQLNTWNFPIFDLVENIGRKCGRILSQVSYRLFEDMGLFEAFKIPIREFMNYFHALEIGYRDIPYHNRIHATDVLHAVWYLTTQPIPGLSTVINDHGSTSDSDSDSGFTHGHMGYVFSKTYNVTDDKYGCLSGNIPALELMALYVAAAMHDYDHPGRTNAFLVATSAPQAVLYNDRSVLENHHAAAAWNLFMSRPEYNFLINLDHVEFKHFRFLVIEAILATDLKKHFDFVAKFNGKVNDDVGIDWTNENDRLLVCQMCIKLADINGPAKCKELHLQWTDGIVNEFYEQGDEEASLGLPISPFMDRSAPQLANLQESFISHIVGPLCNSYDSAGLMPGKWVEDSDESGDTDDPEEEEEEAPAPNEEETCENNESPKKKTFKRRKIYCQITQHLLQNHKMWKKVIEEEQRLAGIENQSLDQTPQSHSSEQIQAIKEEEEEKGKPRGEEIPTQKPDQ
# Method: (§2) The commercially available 3H-cAMP Scintillation Proximity Assay (SPA, Perkin Elmer) system was used for enzyme inhibition studies. For the determination of the in vitro effect of example compounds on the PDE3A reactions 2 μl of the respective example compound solution in DMSO (serial dilutions) were placed in wells of microtiter plates (Isoplate-96/200W; Perkin Elmer). 50 μl of a dilution of PDE3A cell extract from Sf9 cells overexpressing human full length PDE3A (SB Drug Discovery, UK) in buffer A (50 mM Tris/HCl pH 7.5, 8.3 mM MgCl2, 1.7 mM EDTA, 0.2% BSA) was added. The dilution of the PDE3A cell extract was chosen such that the reaction kinetics was linear and less than 70% of the substrate was consumed (typical dilution 1:5000). The reaction was started by addition of 50 μl (0.025 μCi) of 1:2000 in buffer A w/o BSA diluted substrate [8-3H]adenosine 3′, 5′-cyclic phosphate (1 μCi/μl; Perkin Elmer). After incubation at room temperature for 60 min, the reaction was stopped by addition of 25 μl of a suspension containing 18 mg/ml yttrium scintillation proximity beads (Perkin Elmer) in water. The microtiter plates were sealed and measured in a Microbeta scintillation counter (PerkinElmer Wallac). IC50 values were determined from sigmoidal curves by plotting percentage PDE3A activity vs log compound concentration.
# [4] = molecular target: human full length PDE3B (Homo sapiens (Human), UniProt Q13370); assay: PDE3B enzyme inhibition (3H-cAMP Scintillation Proximity Assay); format: biochemical; conditions: Sf9 cell extract, 60 min room temperature
# Chain of human full length PDE3B (Q13370 whole entry): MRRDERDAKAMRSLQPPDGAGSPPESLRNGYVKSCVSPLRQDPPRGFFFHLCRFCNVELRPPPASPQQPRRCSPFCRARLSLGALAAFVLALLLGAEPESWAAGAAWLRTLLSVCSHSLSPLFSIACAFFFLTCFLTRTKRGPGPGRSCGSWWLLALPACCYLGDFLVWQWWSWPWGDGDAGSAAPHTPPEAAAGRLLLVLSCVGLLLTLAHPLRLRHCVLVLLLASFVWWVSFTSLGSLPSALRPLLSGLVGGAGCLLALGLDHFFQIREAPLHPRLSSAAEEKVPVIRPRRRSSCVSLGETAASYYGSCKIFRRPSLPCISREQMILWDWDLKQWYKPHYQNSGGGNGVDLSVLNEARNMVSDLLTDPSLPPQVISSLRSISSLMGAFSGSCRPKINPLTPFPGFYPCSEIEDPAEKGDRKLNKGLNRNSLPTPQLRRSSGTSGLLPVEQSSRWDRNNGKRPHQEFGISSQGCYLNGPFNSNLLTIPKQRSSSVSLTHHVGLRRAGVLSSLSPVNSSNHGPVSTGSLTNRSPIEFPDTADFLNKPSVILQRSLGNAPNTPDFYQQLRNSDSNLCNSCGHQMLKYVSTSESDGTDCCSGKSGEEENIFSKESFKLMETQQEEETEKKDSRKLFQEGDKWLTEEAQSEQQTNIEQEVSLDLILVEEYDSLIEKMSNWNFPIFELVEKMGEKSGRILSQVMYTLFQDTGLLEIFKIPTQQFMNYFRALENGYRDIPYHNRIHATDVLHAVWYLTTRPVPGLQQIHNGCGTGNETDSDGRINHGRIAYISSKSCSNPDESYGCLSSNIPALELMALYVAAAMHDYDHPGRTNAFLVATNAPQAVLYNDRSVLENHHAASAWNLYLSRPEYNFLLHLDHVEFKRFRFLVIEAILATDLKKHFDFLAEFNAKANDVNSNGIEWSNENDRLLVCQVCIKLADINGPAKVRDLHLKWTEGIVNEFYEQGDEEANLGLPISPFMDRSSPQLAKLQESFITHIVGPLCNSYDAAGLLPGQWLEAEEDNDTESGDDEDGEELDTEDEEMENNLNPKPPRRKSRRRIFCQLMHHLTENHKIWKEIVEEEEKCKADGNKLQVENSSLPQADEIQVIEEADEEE
# Method: as §2, with “PDE3B” for “PDE3A”, “1:6000).” for “1:5000).”
Structure (SMILES),pIC50 [1],pIC50 [2],pIC50 [3],pIC50 [4]
"C[C@@H]1NC(=O)NN=C1c1ccc(NC[C@@H](O)C(F)(F)F)c(C(F)(F)F)c1 [Example 5, (5S)-5-methyl-6-[4-{[(2R)-3,3,3-trifluoro-2-hydroxypropyl]amino}-3-(trifluoromethyl)phenyl]-4,5-dihydro-1,2,4-triazin-3(2H)-one]",9.70,9.22,8.40,8.30
"C[C@@H]1NC(=O)NN=C1c1ccc(NC2CCCC2)c(C(F)(F)F)c1 [Example 4, (5S)-6-[4-(cyclopentylamino)-3-(trifluoromethyl)phenyl]-5-methyl-4,5-dihydro-1,2,4-triazin-3(2H)-one]",10.00,9.40,8.70,9.00
"C[C@@H]1NC(=O)NN=C1c1ccc(N2CC(C)(O)C2)c(C(F)(F)F)c1 [Example 3, (5S)-6-[4-(3-hydroxy-3-methylazetidin-1-yl)-3-(trifluoromethyl)phenyl]-5-methyl-4,5-dihydro-1,2,4-triazin-3(2H)-one]",10.00,9.52,8.70,9.00
"C[C@@H]1NC(=O)NN=C1c1ccc(NCc2ccn[nH]2)c(C(F)(F)F)c1 [Example 2, (5S)-5-methyl-6-[4-{[(1H-pyrazol-5-yl)methyl]amino}-3-(trifluoromethyl)phenyl]-4,5-dihydro-1,2,4-triazin-3(2H)-one]",9.15,9.52,8.30,8.22
"C[C@@H]1NC(=O)NN=C1c1ccc(NCc2cnccn2)c(C(F)(F)F)c1 [Example 6, (5S)-5-methyl-6-[4-{[(pyrazin-2-yl)methyl]amino}-3-(trifluoromethyl)phenyl]-4,5-dihydro-1,2,4-triazin-3(2H)-one]",9.52,9.15,8.40,8.30
